Data reported in US12084451B2, “Compositions and methods for reducing tactile dysfunction, anxiety, and social impairment” (President and Fellows of Harvard College, priority 2018, dated 2024).
Where two headings read alike, the source gives them in different places.

Key:
Type in all cases: cell-based
hGABAA α1β3γ2 [1] = molecular target: T1, hGABAA α1β3γ2 (Homo sapiens, UniProt P14867+P18507+P28472); experiment: hGABAA IonFlux HT PAM Assay, α1β3γ2; conditions: for Mean Maximal Effect (% of Control): normalized to baseline peak current induced by EC20 GABA (1 μM) for 2 seconds
T1 sequence (P14867 28-456): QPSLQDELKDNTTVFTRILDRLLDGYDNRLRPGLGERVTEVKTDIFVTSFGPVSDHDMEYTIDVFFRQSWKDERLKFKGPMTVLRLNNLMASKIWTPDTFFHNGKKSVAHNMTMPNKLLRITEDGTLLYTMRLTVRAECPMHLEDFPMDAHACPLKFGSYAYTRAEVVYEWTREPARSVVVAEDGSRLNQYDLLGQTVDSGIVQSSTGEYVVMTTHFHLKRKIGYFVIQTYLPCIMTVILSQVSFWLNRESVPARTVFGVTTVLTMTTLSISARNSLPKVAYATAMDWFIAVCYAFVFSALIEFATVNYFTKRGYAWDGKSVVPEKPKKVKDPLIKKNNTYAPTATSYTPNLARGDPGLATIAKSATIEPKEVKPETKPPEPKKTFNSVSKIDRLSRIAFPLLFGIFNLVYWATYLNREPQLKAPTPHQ
T1 sequence (P28472 26-473): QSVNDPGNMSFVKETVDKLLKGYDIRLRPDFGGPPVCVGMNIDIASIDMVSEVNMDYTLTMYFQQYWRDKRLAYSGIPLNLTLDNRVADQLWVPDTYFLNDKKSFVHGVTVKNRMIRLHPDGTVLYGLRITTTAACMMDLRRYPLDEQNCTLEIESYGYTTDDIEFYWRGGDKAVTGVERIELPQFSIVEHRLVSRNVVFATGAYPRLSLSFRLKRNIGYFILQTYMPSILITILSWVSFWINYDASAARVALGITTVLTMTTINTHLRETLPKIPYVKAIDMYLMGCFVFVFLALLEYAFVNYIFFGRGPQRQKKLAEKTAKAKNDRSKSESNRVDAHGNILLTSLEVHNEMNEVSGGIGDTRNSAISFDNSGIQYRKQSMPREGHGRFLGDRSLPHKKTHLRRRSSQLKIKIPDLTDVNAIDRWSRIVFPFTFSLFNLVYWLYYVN
T1 sequence (P18507 40-475): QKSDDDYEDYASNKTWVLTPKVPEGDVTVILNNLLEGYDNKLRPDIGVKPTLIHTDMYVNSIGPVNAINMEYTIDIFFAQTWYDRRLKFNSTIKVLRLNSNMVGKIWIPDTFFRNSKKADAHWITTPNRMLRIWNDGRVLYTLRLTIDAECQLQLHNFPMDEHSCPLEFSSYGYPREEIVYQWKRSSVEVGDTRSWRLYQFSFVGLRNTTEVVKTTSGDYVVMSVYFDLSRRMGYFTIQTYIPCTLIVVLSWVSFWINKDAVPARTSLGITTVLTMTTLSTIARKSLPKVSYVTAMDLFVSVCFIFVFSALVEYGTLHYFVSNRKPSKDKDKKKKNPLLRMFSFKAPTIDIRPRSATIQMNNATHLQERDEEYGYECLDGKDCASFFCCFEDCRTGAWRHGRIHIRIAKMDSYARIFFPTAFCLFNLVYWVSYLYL
Source text: (§1) Ligand-gated ion channels targeted were hGABAA α1β3γ2 and hGABAA α2β3γ2.
(§2) Electrophysiological assays conducted to profile nine (9) compounds for activities on the on channel targets listed above for Positive Allosteric Modulator (PAM) activities using the IonFlux HT electrophysiological platform.
The parameters measured are described in the Data Analysis section.
(§3) All wells included a final DMSO concentration of 0.33% including all control wells.
(§4) All recordings were obtained from a holding potential of −60 mV. The compound addition sequence that was used for all additions was the same for all assays. […] The process was repeated with the next ascending concentration of test compound (FIG. 1).
(§5) All data were first exported to an Excel compatible data file and then analyzed using Graph Pad Prism software.

hGABAA α2β3γ2 = hGABAA α2β3γ2 (Homo sapiens, UniProt P18507+P28472+P47869); experiment: hGABAA IonFlux HT PAM Assay, α2β3γ2; conditions: for Mean Maximal Effect (% of Control): normalized to baseline peak current induced by EC20 GABA (0.8 μM) for 2 seconds
hGABAA α2β3γ2, sequence (P47869 29-451): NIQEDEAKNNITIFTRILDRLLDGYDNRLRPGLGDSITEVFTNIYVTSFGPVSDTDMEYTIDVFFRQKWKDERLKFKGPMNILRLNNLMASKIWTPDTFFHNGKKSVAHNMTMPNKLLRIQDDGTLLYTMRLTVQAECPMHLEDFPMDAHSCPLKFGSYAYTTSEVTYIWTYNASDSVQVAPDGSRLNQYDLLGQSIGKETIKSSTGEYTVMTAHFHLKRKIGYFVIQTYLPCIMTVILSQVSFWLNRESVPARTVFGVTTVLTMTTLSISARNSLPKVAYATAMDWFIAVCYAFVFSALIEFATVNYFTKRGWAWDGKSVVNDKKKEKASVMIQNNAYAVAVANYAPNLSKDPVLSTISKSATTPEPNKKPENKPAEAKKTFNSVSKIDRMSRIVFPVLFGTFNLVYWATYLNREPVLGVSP
hGABAA α2β3γ2, sequence (P28472 26-473): as the sequence (P28472 26-473) above
hGABAA α2β3γ2, sequence (P18507 40-475): as the sequence (P18507 40-475) above
Source text: as §1, §2
The parameters measured are described in the Data Analysis section. […] Open circles represent data that has been excluded from the curve fitting. Where no curve fit was possible, n/c (not calculable) is listed.
as §3, §4, §5

hGABAA α1β3γ2 [2] = molecular target: T1, hGABAA α1β3γ2; experiment: hGABAA α1β3γ2 IonFlux HT Agonist Assay; design: activation of hGABAA α1β3γ2 ion channel currents / activation: dose or concentration left out as unconfirmed; conditions: for EC50: agonist activation of channel currents, read-out: Estimated EC50
Procedure: Ligand-gated ion channel targets were hGABAA α2β3γ2 and hGABAA α1β3γ2. Electrophysiological assays conducted to profile two compounds for agonist activities on hGABAA α2β3γ2 and seven compounds for agonist activities on hGABAA α1β3γ2 using the IonFlux HT electrophysiological platform.
The parameters measured are described in the Data Analysis section. […] Note: The test compounds was applied over two (2) ‘experimental patterns’ in increasing concentrations.
The supplied compound was prepared in DMSO to concentrations that were 300× the final assay concentrations. Aliquots were taken out and diluted 300× into external buffer to give the final assay concentration. At wells included a final DMSO concentration of 0.33% including all control wets.
All recordings were obtained from a holding potential of −60 mV. The compound addition sequence that was used for all additions was the same for all assays. […] Each test concentration of compound was applied for 2 seconds followed by 60 seconds wash. The process was repeated with the next ascending concentration of test compound. The test compounds were applied over two (2) ‘experimental patterns’ in increasing concentrations (FIG. 11).
AM data were first exported to an Excel compatible data file and then analyzed using Graph Pad Prism software.

[3] = Estimated EC50, positive modulation of EC20 GABA current
[4] = read-out: Normalized Percentage Activation Mean
[5] = positive modulation of EC20 GABA current

| Compound | Mean Maximal Effect (% of Control) (hGABAA α1β3γ2 [1]) | Mean Maximal Effect (% of Control) (hGABAA α2β3γ2) | EC50 (hGABAA α1β3γ2 [1]; read-out: Estimated EC50) [µM] | EC50 (hGABAA α2β3γ2; read-out: Estimated EC50) [µM] | activation of hGABAA α1β3γ2 ion channel currents (hGABAA α1β3γ2 [2]) | EC50 (hGABAA α1β3γ2 [2]) [µM] | activation at 0.3 µM (hGABAA α1β3γ2 [2]; [4]) [%] | activation at 1 µM (hGABAA α1β3γ2 [2]; [4]) [%] | activation at 3 µM (hGABAA α1β3γ2 [2]; [4]) [%] | activation at 10 µM (hGABAA α1β3γ2 [2]; [4]) [%] | activation at 30 µM (hGABAA α1β3γ2 [2]; [4]) [%] | activation at 100 µM (hGABAA α1β3γ2 [2]; [4]) [%] | activation at 300 µM (hGABAA α1β3γ2 [2]; [4]) [%] | activation (hGABAA α1β3γ2 [2]; [4]) [%] | further results |
| --- | --- | --- | --- | --- | --- | --- | --- | --- | --- | --- | --- | --- | --- | --- | --- |
| CN1CCN(C(=O)O[C@H]2c3nccnc3C(=O)N2c2ccc(Cl)cn2)CC1 [Eszopiclone] | 252 % of Control | 213 % of Control |  |  |  |  |  |  |  |  |  |  |  |  | (%) Control mean (hGABAA α1β3γ2 [1]; 0.001 μM + EC20 GABA): 105.7 % Control; (%) Control n1 (hGABAA α1β3γ2 [1]; 0.001 μM + EC20 GABA): 97.8 % Control; (%) Control n2 (hGABAA α1β3γ2 [1]; 0.001 μM + EC20 GABA): 113.5 % Control; (%) Control mean (hGABAA α1β3γ2 [1]; 0.01 μM + EC20 GABA): 140.3 % Control; (%) Control n1 (hGABAA α1β3γ2 [1]; 0.01 μM + EC20 GABA): 132.0 % Control; (%) Control n2 (hGABAA α1β3γ2 [1]; 0.01 μM + EC20 GABA): 148.7 % Control; (%) Control mean (hGABAA α1β3γ2 [1]; 0.1 μM + EC20 GABA): 252.4 % Control; (%) Control n1 (hGABAA α1β3γ2 [1]; 0.1 μM + EC20 GABA): 242.3 % Control; (%) Control n2 (hGABAA α1β3γ2 [1]; 0.1 μM + EC20 GABA): 262.5 % Control; (%) Control mean (hGABAA α1β3γ2 [1]; 1 μM + EC20 GABA): 247.6 % Control; (%) Control n1 (hGABAA α1β3γ2 [1]; 1 μM + EC20 GABA): 267.4 % Control; (%) Control n2 (hGABAA α1β3γ2 [1]; 1 μM + EC20 GABA): 227.7 % Control; (%) Control mean (hGABAA α1β3γ2 [1]; 10 μM + EC20 GABA): 252.4 % Control; (%) Control n1 (hGABAA α1β3γ2 [1]; 10 μM + EC20 GABA): 262.3 % Control; (%) Control n2 (hGABAA α1β3γ2 [1]; 10 μM + EC20 GABA): 242.5 % Control; (%) Control mean (hGABAA α1β3γ2 [1]; 100 μM + EC20 GABA): 234.7 % Control; (%) Control n1 (hGABAA α1β3γ2 [1]; 100 μM + EC20 GABA): 258.5 % Control; (%) Control n2 (hGABAA α1β3γ2 [1]; 100 μM + EC20 GABA): 210.8 % Control; EC50 (hGABAA α1β3γ2 [1]; [3]): 0.012 µM; EC50 (hGABAA α2β3γ2; [3]): 0.164 µM |
| CCN(CCNC)C(=O)CC1c2nccnc2C(=O)N1c1ccc(Cl)cn1 (stereo not shown) [Compound 5] | 136 % of Control | 126 % of Control | 3.16 | 8.7 | did not activate | > 1000 | 2.54 | 2.02 | 2.28 | 2.45 | 3.08 | 3.75 | 2.7 |  | activation at 10000 µM (hGABAA α1β3γ2 [2]; [4]): 2.38% |
| CCCN(CCNC)C(=O)Cc1c(-c2ccc(C)cc2)nc2ccc(C)cn12 [Compound 2] | 354 % of Control | 248 % of Control | 0.446 | 2 | did not activate | > 1000 | 2.17 | 1.99 | 2.79 | 5.37 | 5.93 | 7.1 | 3.63 | 3.48 |  |
| CN(C)CCN(C)C(=O)CC1c2nccnc2C(=O)N1c1ccc(Cl)cn1 (stereo not shown) [Compound 6] | 130 % of Control | 122 % of Control |  |  | did not activate | > 1000 | 1.59 | 2.06 | 1.9 | 1.89 | 1.74 | 1.95 | 2.19 | 2.08 | Estimated EC50 (hGABAA α1β3γ2 [1]; [5]): n/c; Estimated EC50 (hGABAA α2β3γ2; [5]): n/c |
